Assay results: patent publication US8952024B2, “Herbicidal pyrimidone derivatives” (E I du Pont de Nemours and Company, priority 2009, dated 2015)

Assays:
Assay type in all cases: in vivo
[1] = tested on: canarygrass (Phalaris minor); assay: Test B postemergence plant response; conditions: for Canarygrass plant response rating (0 to 100 scale): 62 g ai/ha, 0 is no effect, 13 to 15 days
Outline: (§1)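 Plants at the 1- to 4-leaf stage (2 to 18 cm tall), grown in pots of peat moss/vermiculite medium with wetting agent and starter nutrients, received postemergence applications of test chemicals. After 13 to 15 days in a greenhouse, injury was rated visually against untreated controls on a 0 (no effect) to 100 (complete control) scale.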

[2] = tested on: windgrass (Apera spica-venti); assay: Test B postemergence plant response; conditions: for Windgrass plant response rating (0 to 100 scale): 62 g ai/ha, postemergence, 0 is no effect, 100 is complete control, 13 to 15 days; for Plant response rating, Windgrass: Postemergence
Outline: as §1

[3] = tested on: chickweed (Stellaria media); assay: Test B postemergence plant response; conditions: for Chickweed plant response rating (0 to 100 scale): 62 g ai/ha, 0 is no effect, 13 to 15 days
Outline: as §1

[4] = tested on: winter barley (Hordeum vulgare); assay: Test B postemergence plant response; conditions: for Barley plant response rating (0 to 100 scale): 62 g ai/ha, 0 is no effect, 13 to 15 days
Outline: as §1

[5] = tested on: wheat (Triticum aestivum); assay: Test B pre-/postemergence plant response; conditions: for Wheat plant response rating (0 to 100 scale): 62 g ai/ha, postemergence, 0 is no effect, 100 is complete control, 13 to 15 days; for Plant response rating, Wheat: Postemergence
Outline: (§2)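 Steps: sow seed in loam–sand soil and spray preemergence, or grow plants in peat-based medium to 1–4 leaves (2–18 cm) and spray postemergence; formulation is non-phytotoxic solvent plus surfactant; hold in greenhouse 13–15 days; score visually vs controls, 0 = no effect, 100 = complete control.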

[6] = tested on: lambsquarters (Chenopodium album); assay: Test B pre-/postemergence plant response; conditions: for Lambsquarters plant response rating (0 to 100 scale): 62 g ai/ha, 0 is no effect, 13 to 15 days
Outline: as §2

[7] = tested on: bermudagrass (Cynodon dactylon); assay: Test B pre-/postemergence plant response; conditions: for Bermudagrass plant response rating (0 to 100 scale): 62 g ai/ha, 0 is no effect, 13 to 15 days
Outline: as §2

[8] = tested on: pigweed (Amaranthus retroflexus); assay: Test B pre-/postemergence plant response; conditions: for Pigweed plant response rating (0 to 100 scale): 62 g ai/ha, 0 is no effect, 13 to 15 days
Outline: as §2

[9] = tested on: ragweed (common ragweed, Ambrosia elatior); assay: Test B pre-/postemergence plant response; conditions: for Ragweed plant response rating (0 to 100 scale): 62 g ai/ha, postemergence, 0 is no effect, 100 is complete control, 13 to 15 days; for Plant response rating, Ragweed: Postemergence
Outline: as §2

[10] = tested on: Italian ryegrass (Lolium multiflorum); assay: Test B pre-/postemergence plant response; conditions: for Ryegrass, Italian plant response rating (0 to 100 scale): 62 g ai/ha, postemergence, 0 is no effect, 100 is complete control, 13 to 15 days; for Plant response rating, Ryegrass, Italian: Postemergence
Outline: as §2

[11] = 31 g ai/ha, postemergence, scale 0 to 100, 0 is no effect, 100 is complete control
[12] = postemergence, 100 is complete control
[13] = Postemergence, 125 g ai/ha, scale 0 to 100 (0 no effect, 100 complete control)
[14] = Postemergence, 250 g ai/ha, scale 0 to 100 (0 no effect, 100 complete control)
[15] = 125 g ai/ha, scale 0 to 100 (0 no effect, 100 complete control)
[16] = 250 g ai/ha, scale 0 to 100 (0 no effect, 100 complete control)
[17] = 16 g ai/ha, Postemergence, 0 to 100 scale
[18] = Postemergence, 31 g ai/ha, 0 to 100 scale (0 no effect, 100 complete control)
[19] = 31 g ai/ha, 0 to 100 scale (0 no effect, 100 complete control)

SMILES | Canarygrass plant response rating (0 to 100 scale) [1, 12] | Plant response rating, Canarygrass [1, 13] | Windgrass plant response rating (0 to 100 scale) [2] | Plant response rating, Windgrass [2, 15] | Chickweed plant response rating (0 to 100 scale) [3, 12] | Plant response rating, Chickweed [3, 13] | Barley plant response rating (0 to 100 scale) [4, 12] | Plant response rating, Barley [4, 13] | Wheat plant response rating (0 to 100 scale) [5] | Plant response rating, Wheat [5, 15] | Lambsquarters plant response rating (0 to 100 scale) [6, 12] | Plant response rating, Lambsquarters [6, 13] | Bermudagrass plant response rating (0 to 100 scale) [7, 12] | Plant response rating, Bermudagrass [7, 13] | Pigweed plant response rating (0 to 100 scale) [8, 12] | Plant response rating, Pigweed [8, 13] | Ragweed plant response rating (0 to 100 scale) [9] | Plant response rating, Ragweed [9, 15] | Ryegrass, Italian plant response rating (0 to 100 scale) [10] | Plant response rating, Ryegrass, Italian [10, 15] | further results
COCCn1c(-c2ccco2)ncc(C(=O)C2=C(O)CCCC2=O)c1=O [Compound 111] | 0 | 0 | 30 | 35 | 100 | 100 | 0 | 5 | 0 | 5 | 98 | 100 | 100 | 100 | 100 | 100 | 95 | 98 | 0 | 0 | Plant response rating, Canarygrass [1, 11]: 0; Plant response rating, Canarygrass [1, 14]: 15; Plant response rating, Chickweed [3, 11]: 95; Plant response rating, Chickweed [3, 14]: 100; Plant response rating, Barley [4, 11]: 0; Plant response rating, Barley [4, 14]: 30; Plant response rating, Lambsquarters [6, 11]: 98; Plant response rating, Lambsquarters [6, 14]: 100; Plant response rating, Bermudagrass [7, 11]: 95; Plant response rating, Bermudagrass [7, 14]: 100; Plant response rating, Pigweed [8, 11]: 95; Plant response rating, Pigweed [8, 14]: 100; Plant response rating, Ragweed [9, 16]: 98; Plant response rating, Ryegrass, Italian [10, 16]: 5
CCn1c(-c2cc(F)cc(F)c2)ncc(C(=O)C2=C(O)CCCC2=O)c1=O [Compound 122] | 35 | 45 | 30 | 50 | 70 | 80 | 10 | 50 | 30 | 50 | 65 | 90 | 80 | 85 | 90 | 98 | 60 | 75 | 10 | 40 | Plant response rating, Canarygrass [1, 17]: 0; Plant response rating, Canarygrass [1, 18]: 10; Plant response rating, Windgrass ([2]; 16 g ai/ha, 0 to 100 scale): 5; Plant response rating, Windgrass [2, 19]: 5; Plant response rating, Chickweed [3, 17]: 65; Plant response rating, Chickweed [3, 18]: 70; Plant response rating, Barley [4, 17]: 0; Plant response rating, Barley [4, 18]: 0; Plant response rating, Wheat ([5]; 16 g ai/ha, 0 to 100 scale): 5; Plant response rating, Wheat [5, 19]: 15; Plant response rating, Lambsquarters [6, 17]: 55; Plant response rating, Lambsquarters [6, 18]: 60; Plant response rating, Bermudagrass [7, 17]: 65; Plant response rating, Bermudagrass [7, 18]: 75; Plant response rating, Pigweed [8, 17]: 75; Plant response rating, Pigweed [8, 18]: 85; Plant response rating, Ragweed ([9]; 16 g ai/ha, 0 to 100 scale): 55; Plant response rating, Ragweed [9, 19]: 60; Plant response rating, Ryegrass, Italian ([10]; 16 g ai/ha, 0 to 100 scale): 5; Plant response rating, Ryegrass, Italian [10, 19]: 5
COCCCn1c(-c2cccc(F)c2)ncc(C(=O)C2=C(O)CCCC2=O)c1=O [Compound 126] | 40 | 60 | 10 | 40 | 80 | 98 | 5 | 15 | 15 | 35 | 85 | 85 | 85 | 90 | 95 | 98 | 75 | 85 | 5 | 5 | Plant response rating, Canarygrass [1, 18]: 15; Plant response rating, Canarygrass [1, 14]: 90; Plant response rating, Windgrass [2, 19]: 10; Plant response rating, Chickweed [3, 18]: 65; Plant response rating, Chickweed [3, 14]: 98; Plant response rating, Barley [4, 18]: 5; Plant response rating, Barley [4, 14]: 40; Plant response rating, Wheat [5, 19]: 5; Plant response rating, Lambsquarters [6, 18]: 70; Plant response rating, Lambsquarters [6, 14]: 98; Plant response rating, Bermudagrass [7, 18]: 75; Plant response rating, Bermudagrass [7, 14]: 95; Plant response rating, Pigweed [8, 18]: 75; Plant response rating, Pigweed [8, 14]: 98; Plant response rating, Ragweed [9, 19]: 55; Plant response rating, Ragweed [9, 16]: 90; Plant response rating, Ryegrass, Italian [10, 19]: 0; Plant response rating, Ryegrass, Italian [10, 16]: 50
